This is an account of results in patent EP0442744A2, “Treatment of viral disease by glycosides” (TSUMURA & CO., priority 1990, dated 1991).

Data set [1] is described as follows: Cytotoxicity in FL cells (experiment repeated without the virus). Conditions: human.
Description: (§1) When the experiment was started, the medium was removed from the dishes and a suspension (1 ml) containing Herpes simplex virus at the predetermined concentration in the medium was added to the dishes. The dishes were incubated in an incubator under the humidified air containing 5% CO₂ at 36°C for one hour to allow the adsorption of the viruses. Then the medium was removed and a fresh medium containing the test compounds was added. After 24 hours, the number of polykaryotic giant cells in each dish was counted and the minimum concentration showing no polykaryotic giant cells was taken as the antivirally active concentration to the herpes virus. The experiment was repeated without the virus and the minimum concentration at which cells died was taken as the cytotoxic concentration.
Data set [2] has as its system Herpes simplex virus. Description: Herpes virus inhibition experiment in FL cells (polykaryotic giant cell count). The format is cell-based. Particulars: for minimal effective concentration: minimum concentration showing no polykaryotic giant cells after 24 hours, FL cells infected with Herpes simplex virus, read-out: Antivial activity.
Description: as §1
A short description of data set [3]: in vitro. Conditions: human, fl cells.
Description: as §1

Structures are written as SMILES.

`C[C@H]1O[C@@H](O[C@H]2[C@@H](O)C[C@H](O[C@H]3[C@@H](O)C[C@H](O[C@H]4CC[C@@]5(C)[C@H](CC[C@@H]6[C@@H]5CC[C@]5(C)[C@@H](C7=CC(=O)OC7)CC[C@]65O)C4)O[C@@H]3C)O[C@@H]2C)C[C@H](O)[C@@H]1O` [Compound 1, 3-[(O-2,6-dideoxy-β-D-ribo-hexopranoxyl-(1→4)-O-2,6-dideoxy-β-D-ribo-hexopyranosyl-(1→4)-2,6-dideoxy-β-D-ribo-hexopyranosyl)-oxy]-14-hydroxycard-(20)22-enolide] yielded an MCC in data set [1] of 0.48 µg/mL. In data set [2], the minimal effective concentration was found to be 0.025 µg/mL.
The like results for `C[C@H]1O[C@@H](O[C@H]2[C@@H](O)C[C@H](O[C@H]3[C@@H](O)C[C@H](O[C@H]4CC[C@@]5(C)[C@H](CC[C@@H]6[C@@H]5C[C@@H](O)[C@]5(C)[C@@H](C7=CC(=O)OC7)CC[C@]65O)C4)O[C@@H]3C)O[C@@H]2C)C[C@H](O)[C@@H]1O` [Compound 2, 3-[(O-2,6-dideoxy-β-D-ribo-hexopranoxyl-(1→4)-O-2,6-dideoxy-β-D-ribo-hexopyranosyl-(1→4)-2,6-dideoxy-β-D-ribo-hexopyranosyl)-oxy]-12,14-dihydroxycard-(20)22-enolide] were, in that order, 0.48 µg/mL and 0.05 µg/mL.
The corresponding values for `C[C@@H]1O[C@@H](O[C@H]2C[C@@H](O)[C@]3(CO)[C@H]4[C@H](O)C[C@]5(C)[C@@H](C6=CC(=O)OC6)CC[C@]5(O)[C@@H]4CC[C@]3(O)C2)[C@H](O)[C@H](O)[C@H]1O` [Compound 4, 3-[(6-deoxy-α-L-mannopyranosyl)oxy]-1,5,11α, 14,19-pentahydroxycard-20(22) enolide] are 0.46 µg/mL and 0.04 µg/mL.
The corresponding values for `C[C@H]1O[C@@H](O[C@H]2CC[C@]3(C=O)[C@H]4CC[C@]5(C)[C@@H](C6=CC(=O)OC6)CC[C@]5(O)[C@@H]4CC[C@]3(O)C2)C[C@H](O)[C@@H]1O` [Compound 5] are 0.46 µg/mL and 0.03 µg/mL.
In data set [1], `C[C@@H]1O[C@@H](O[C@H]2CC[C@]3(C=O)[C@H]4CC[C@]5(C)[C@@H](C6=CC(=O)OC6)CC[C@]5(O)[C@@H]4CC[C@]3(O)C2)[C@H](O)[C@H](O)[C@H]1O` [Compound 6, 3β-[(6-deoxy-α-L-mannopyranosyl)oxy]-5,14-dihydroxy-19-oxo-5β-card-20(22) enolide] gave an MCC of 0.38 µg/mL. Further, in data set [2], the minimal effective concentration amounted to 0.025 µg/mL.
Take `C[C@]12CC[C@H](O)C[C@H]1CC[C@@H]1[C@@H]2CC[C@]2(C)[C@@H](c3ccc(=O)oc3)CC[C@]12O` [Compound 7, 3,14-dihydroxybufa-20,22-dienolide]: in data set [3], the MCC at 24 h is 0.5 µg/mL. The compound also showed an Antivial activity in data set [2] of 8 ng/mL.
